Source: patent publication US20040102325A1, “Phenylpropynyloxypyridine herbicides” (priority 2000, published 2004)

Legend:
Assay type in all cases: in vivo
[1] = system: Setaria; test: Pre-emergence herbicidal action, Setaria; conditions: 1000 g a.i./ha, 4 weeks, scale of nine ratings (1=total damage, 9=no action)
Source text: (§1) Monocotyledonous and dicotyledonous test plants are sown in standard soil in pots. Immediately after sowing, an aqueous suspension of the test compounds (prepared from a wettable powder (Example F3, b) according to WO 97/34485) or an emulsion of the test compounds (prepared from an emulsifiable concentrate (Example F1, c) according to WO 97/34485) is applied by spraying at an optimum rate of application (500 litres of water/ha). The test plants are then cultivated in a greenhouse under optimum conditions. After a test duration of 4 weeks, the test is evaluated in accordance with a scale of nine ratings (1=total damage, 9=no action). Ratings of from 1 to 4 (especially from 1 to 3) indicate good to very good herbicidal action. Test plants: Setaria, Panicum, Digitaria, Amaranthus, Stellaria, Veronica.

[2] = system: Panicum; test: Pre-emergence herbicidal action, Panicum; design: key: 1=total damage; 9=no action; conditions: 1000 g a.i./ha, 4 weeks, scale of nine ratings (1=total damage, 9=no action)
Source text: as §1

[3] = system: Digitaria; test: Pre-emergence herbicidal action, Digitaria; design: key: 1=total damage; 9=no action; conditions: 1000 g a.i./ha, 4 weeks, scale of nine ratings (1=total damage, 9=no action)
Source text: as §1

[4] = system: Amaranthus; test: Pre-emergence herbicidal action, Amaranthus; design: key: 1=total damage; 9=no action; conditions: 1000 g a.i./ha, 4 weeks, scale of nine ratings (1=total damage, 9=no action)
Source text: as §1

[5] = system: Stellaria; test: Pre-emergence herbicidal action, Stellaria; design: key: 1=total damage; 9=no action; conditions: 1000 g a.i./ha, 4 weeks, scale of nine ratings (1=total damage, 9=no action)
Source text: as §1

[6] = system: Veronica; test: Pre-emergence herbicidal action, Veronica; design: key: 1=total damage; 9=no action; conditions: 1000 g a.i./ha, 4 weeks, scale of nine ratings (1=total damage, 9=no action)
Source text: as §1

[7] = system: Panicum; test: Post-emergence herbicidal action, Panicum; design: key: 1=total damage; 9=no action; conditions: post-emergence (2- to 3-leaf stage), 1000 g a.i/ha, 2 to 3 weeks, scale of nine ratings (1=total damage, 9=no action)
Protocol: (§2) Monocotyledonous and dicotyledonous test plants are sown in standard soil in pots, and at the 2- to 3-leaf stage are sprayed with an aqueous suspension of the test compounds (prepared from a wettable powder (Example F3, b) according to WO 97/34485) or with an emulsion of the test compounds (prepared from an emulsifiable concentrate (Example F1, c) according to WO 97/34485) at an optimum rate of application of 500 litres of water/ha). The test plants are then grown on in the greenhouse under optimum conditions. After a test duration of 2 to 3 weeks, the test is evaluated in accordance with a scale of nine ratings (1=total damage, 9=no action). Ratings of from 1 to 4 (especially from 1 to 3) indicate good to very good herbicidal action. Test plants: Panicum, Euphorbia, Sida, Amaranthus, Chenopodium, Stellaria, Veronica.

[8] = system: Euphorbia; test: Post-emergence herbicidal action, Euphorbia; design: key: 1=total damage; 9=no action; conditions: post-emergence (2- to 3-leaf stage), 1000 g a.i/ha, 2 to 3 weeks, scale of nine ratings (1=total damage, 9=no action)
Protocol: as §2

[9] = system: Sida; test: Post-emergence herbicidal action, Sida; conditions: post-emergence (2- to 3-leaf stage), 1000 g a.i/ha, 2 to 3 weeks, scale of nine ratings (1=total damage, 9=no action)
Protocol: as §2

[10] = system: Amaranthus; test: Post-emergence herbicidal action, Amaranthus; design: key: 1=total damage; 9=no action; conditions: post-emergence (2- to 3-leaf stage), 1000 g a.i/ha, 2 to 3 weeks, scale of nine ratings (1=total damage, 9=no action)
Protocol: as §2

[11] = system: Chenopodium; test: Post-emergence herbicidal action, Chenopodium; design: key: 1=total damage; 9=no action; conditions: post-emergence (2- to 3-leaf stage), 1000 g a.i/ha, 2 to 3 weeks, scale of nine ratings (1=total damage, 9=no action)
Protocol: as §2

[12] = system: Stellaria; test: Post-emergence herbicidal action, Stellaria; design: key: 1=total damage; 9=no action; conditions: post-emergence (2- to 3-leaf stage), 1000 g a.i/ha, 2 to 3 weeks, scale of nine ratings (1=total damage, 9=no action)
Protocol: as §2

[13] = system: Veronica; test: Post-emergence herbicidal action, Veronica; design: key: 1=total damage; 9=no action; conditions: post-emergence (2- to 3-leaf stage), 1000 g a.i/ha, 2 to 3 weeks, scale of nine ratings (1=total damage, 9=no action)
Protocol: as §2

| Compound | Setaria, herbicidal action rating [1] | Panicum, herbicidal action rating [2] | Digitaria, herbicidal action rating [3] | Amaranthus, herbicidal action rating [4] | Stellaria, herbicidal action rating [5] | Veronica, herbicidal action rating [6] | Panicum, herbicidal action rating [7] | Euphorbia, herbicidal action rating [8] | Sida, herbicidal action rating [9] | Amaranthus, herbicidal action rating [10] | Chenopodium, herbicidal action rating [11] | Stellaria, herbicidal action rating [12] | Veronica, herbicidal action rating [13] |
| --- | --- | --- | --- | --- | --- | --- | --- | --- | --- | --- | --- | --- | --- |
| N#CCc1cccc(C#CCOc2ccc(Cl)cn2)c1 [1.007] | 5 | 1 | 1 | 1 | 1 | 7 | 2 | 2 | 4 | 1 | 1 | 6 | 1 |
| N#CCc1cccc(C#CCOc2ccc(Br)cn2)c1 [1.008] | 7 | 1 | 1 | 1 | 4 | 1 | 7 | 2 | 3 | 1 | 1 | 4 | 2 |
| N#CCc1cccc(C#CCOc2ncc(F)cc2F)c1 [1.009] |  |  | 1 | 2 | 3 |  | 2 | 1 | 2 | 1 | 1 | 2 | 2 |
| N#CCc1cccc(C#CCOc2ncc(Cl)cc2F)c1 [1.011] | 6 | 1 | 1 | 1 | 1 | 1 | 2 | 2 | 2 | 2 | 1 | 2 | 2 |
| COc1cc(F)cnc1OCC#Cc1cccc(CC#N)c1 [1.015] | 7 | 2 | 2 | 1 | 1 | 4 | 1 | 1 | 3 | 1 | 1 | 1 | 2 |
| COc1cc(Cl)cnc1OCC#Cc1cccc(CC#N)c1 [1.016] | 4 | 2 | 1 | 1 | 1 | 1 | 2 | 1 | 2 | 1 | 1 | 1 | 1 |
